One may read the MIC as the lowest concentration that inhibits growth of the organism.

≈ marks a conversion by molar mass, not a printed value. Like-named read-outs stand apart in the source and are kept apart here.

The subject of one data set is S. paratyphi 11737. Briefly: In vitro antibacterial activity (MIC), S. paratyphi 11737. It counts as cell-based. Conditions: Salmonella enterica, 18 h.
Data set [1] relates to lymphocytic leukemia P-388. Nature of the data set: Activity in mice against lymphocytic leukemia P-388. Conditions: Mus musculus, P388, ip, mice, I.P., read-out: T/C. It counts as in vivo.
In a further data set the test system is E. coli 9637. Nature of the data set: In vitro antibacterial activity (MIC), E. coli 9637. The note with it: Escherichia coli, 9637, 18 h.
The subject of the next data set is S. aureus Smith. Briefly: In vitro antibacterial activity (MIC), S. aureus Smith. The note with it: Staphylococcus aureus, 18 h.
The next data set concerns S. aureus 53-180. Nature of the data set: In vitro antibacterial activity (MIC), S. aureus 53-180. The note with it: Staphylococcus aureus, 53180, 18 h.
A further data set deals with P. vulgaris 6896. Nature of the data set: In vitro antibacterial activity (MIC), P. vulgaris 6896. Conditions: Proteus vulgaris, 6896, 18 h.
The next data set concerns N. catarrhalis 8193. Briefly: In vitro antibacterial activity (MIC), N. catarrhalis 8193. The note with it: 18 h.
In another data set the test system is K. pneumoniae 10031. Briefly: In vitro antibacterial activity (MIC), K. pneumoniae 10031. Conditions: Klebsiella pneumoniae, 10031, 18 h.
Data set [2] can be described thus: Antimalarial blood schizonticidal test in mice. It counts as in vivo, Plasmodium berghei (infected ICR/HA Swiss mice). More on the design: ΔMST (increase in mean survival time): unit: days. Conditions: mouse, in vivo, sc, single dose, infected mice; highest dose with no deaths for any reason; read-out: Highest Non-Lethal Dose. The gist of the method:
(§1)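 ICR/HA Swiss mice (18–22 g) infected i.p. with 4 × 10^7 P. berghei KBG 173-parasitized cells; single subcutaneous dose in peanut oil at 72 h post-infection, graded dosages. Survival followed 60 days; 60-day survivors counted cured, deaths before day 6 counted toxic; mean survival time compared with untreated controls.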

The subject of data set [3] is Plasmodium berghei KBG 173. Nature of the data set: Antimalarial blood schizonticidal test in mice. In kind it is in vivo, Plasmodium berghei (infected ICR/HA Swiss mice). On the set-up: ΔMST (increase in mean survival time): unit: days. Conditions: for ED100 / minimal effective dose: Plasmodium berghei, sc, single dose; for ED100: read-out: Lowest Dose Curing All Mice; for minimal effective dose: read-out: Min. Curing Dose; for Cure/Treat at Min. Curing Dose: at the Min. Curing Dose. The gist of the method: as §1

In the case of `CC(C)(C)c1ccc(Cn2ccc3c4c(N)nc(N)nc4ccc32)cc1` [Example 30], the minimal inhibitory concentration (MIC) was over 250 µg/mL in the data set with S. paratyphi 11737; 250 µg/mL (≈ 724 µM) in the data set with E. coli 9637; 7.81 µg/mL (≈ 22.6 µM) against S. aureus Smith; 3.9 µg/mL (≈ 11.3 µM) in the data set with S. aureus 53-180; over 250 µg/mL with P. vulgaris 6896; 0.976 µg/mL (≈ 2.83 µM) against N. catarrhalis 8193. For the same compound, the MIC against K. pneumoniae 10031 came to 3.9 µg/mL (≈ 11.3 µM). In addition, in data set [1] (5 mg/kg), the response vs control in vivo at 5 mg/kg was 125%.
Consider `Nc1nc(N)c2c(ccc3c2ccn3Cc2cccnc2)n1` [Example 44], for which the MIC against S. paratyphi 11737 is 0.488 µg/mL (≈ 1.68 µM); against E. coli 9637, 0.488 µg/mL (≈ 1.68 µM); against S. aureus Smith, 7.81 µg/mL (≈ 26.9 µM); in the data set with S. aureus 53-180, 0.976 µg/mL (≈ 3.36 µM); in the data set with P. vulgaris 6896, 7.81 µg/mL (≈ 26.9 µM); against N. catarrhalis 8193, under 0.0009 µg/mL. In the data set on K. pneumoniae 10031, the MIC came out at 0.122 µg/mL (≈ 0.42 µM). The MTD in data set [2] was 160 mg/kg. In addition, the ED100 in data set [3] (1440 h, s.c., 60-day survivors) came to 160 mg/kg. Also, in [3] (1440 h, s.c., 60-day survivors), the minimal effective dose came out at 80 mg/kg. The “Cure/Treat at Min. Curing Dose” value in data set [3] (s.c., 60-day survivors) is on record as 3/5. In addition, the “ΔMST (increase in mean survival time)” value in data set [3] (s.c., dose 40 mg. per kg.) is given as 8.3.
For `Nc1nc(N)c2c(ccc3c2ccn3Cc2ccncc2)n1` [Example 45], the MIC in the data set with S. paratyphi 11737 came to 0.488 µg/mL (≈ 1.68 µM); against E. coli 9637, 0.244 µg/mL (≈ 0.84 µM); in the data set on S. aureus Smith, 0.122 µg/mL (≈ 0.42 µM); with S. aureus 53-180, 0.122 µg/mL (≈ 0.42 µM); in the data set with P. vulgaris 6896 it was 0.488 µg/mL (≈ 1.68 µM); against N. catarrhalis 8193 it was 0.0038 µg/mL (≈ 0.0131 µM). This compound also yielded an MIC against K. pneumoniae 10031 of 0.122 µg/mL (≈ 0.42 µM). Also, in [3] (1440 h, s.c., 60-day survivors), the minimal effective dose stood at 80 mg/kg. Further, in [3] (s.c., 60-day survivors), the “Cure/Treat at Min. Curing Dose” value is on record as 3/5. The “ΔMST (increase in mean survival time)” value in data set [3] (s.c., dose 40 mg. per kg.) was 9.7. Further, the response vs control in vivo at 15 mg/kg in data set [1] (15 mg/kg) was 142%.
On to `Nc1nc(N)c2c(ccc3c2ccn3Cc2cccc3ccccc23)n1` [Example 47], for which the MIC against S. paratyphi 11737 came to 62.5 µg/mL (≈ 184 µM); with E. coli 9637, 15.6 µg/mL (≈ 46 µM); in the data set on S. aureus Smith it was 3.9 µg/mL (≈ 11.5 µM); against S. aureus 53-180, 0.976 µg/mL (≈ 2.88 µM); in the data set on P. vulgaris 6896, 31.3 µg/mL (≈ 92.2 µM); with N. catarrhalis 8193, 0.0019 µg/mL (≈ 0.0056 µM). Also, the MIC in the data set with K. pneumoniae 10031 was 0.976 µg/mL (≈ 2.88 µM). Besides, the MTD in data set [2] was 80 mg/kg. For the same compound, the ED100 in data set [3] (1440 h, s.c., 60-day survivors) worked out at 20 mg/kg. Further, the minimal effective dose in data set [3] (1440 h, s.c., 60-day survivors) was determined as 5 mg/kg. The “Cure/Treat at Min. Curing Dose” value in data set [3] (s.c., 60-day survivors) is recorded as 2/5. Moreover, the “ΔMST (increase in mean survival time)” value in data set [3] (s.c., dose 5 mg. per kg.) stood at 9.2.
On to `Nc1nc(N)c2c(ccc3c2ccn3Cc2ccc3ccccc3c2)n1` [Example 48], for which the MIC against S. paratyphi 11737 was over 250 µg/mL; with E. coli 9637 it was 250 µg/mL (≈ 737 µM); against S. aureus Smith, 125 µg/mL (≈ 368 µM); in the data set on S. aureus 53-180, 125 µg/mL (≈ 368 µM); with P. vulgaris 6896, over 250 µg/mL; with N. catarrhalis 8193, 0.244 µg/mL (≈ 0.719 µM). In the data set with K. pneumoniae 10031, this compound came in with an MIC of 7.81 µg/mL (≈ 23 µM). Also, in [2], the MTD came to 1160 mg/kg. In addition, the ED100 in [3] (1440 h, s.c., 60-day survivors) came to 40 mg/kg. Further, the minimal effective dose in data set [3] (1440 h, s.c., 60-day survivors) came out at 20 mg/kg. In data set [3] (s.c., 60-day survivors), the “Cure/Treat at Min. Curing Dose” value is 4/5. For the same compound, in data set [3] (s.c., dose 5 mg. per kg.), the “ΔMST (increase in mean survival time)” value came out at 7.3.
As to `Cc1ccc2ccccc2c1Cn1ccc2c3c(N)nc(N)nc3ccc21` [Example 49], the MIC against S. paratyphi 11737 was over 250 µg/mL; in the data set with E. coli 9637, over 250 µg/mL; in the data set with S. aureus Smith it was 125 µg/mL (≈ 354 µM); against S. aureus 53-180 it was 125 µg/mL (≈ 354 µM); in the data set with P. vulgaris 6896 it was over 250 µg/mL; with N. catarrhalis 8193, 0.122 µg/mL (≈ 0.345 µM). This compound displayed an MIC against K. pneumoniae 10031 of 15.6 µg/mL (≈ 44.1 µM). Moreover, the MTD in data set [2] turned out to be 80 mg/kg. In addition, the ED100 in [3] (1440 h, s.c., 60-day survivors) stood at 20 mg/kg. Moreover, the minimal effective dose in data set [3] (this is the lowest dose tested) turned out to be 20 mg/kg. Moreover, in [3] (s.c., 60-day survivors), the “Cure/Treat at Min. Curing Dose” value was 5/5.
Regarding `Nc1nc(N)c2c(ccc3c2ccn3Cc2cccc3cccnc23)n1` [Example 51], the MIC against S. paratyphi 11737 is 1.95 µg/mL (≈ 5.73 µM); against E. coli 9637, 0.244 µg/mL (≈ 0.717 µM); in the data set with S. aureus Smith, 0.244 µg/mL (≈ 0.717 µM); in the data set on S. aureus 53-180, 0.122 µg/mL (≈ 0.358 µM); against P. vulgaris 6896, 7.81 µg/mL (≈ 22.9 µM); with N. catarrhalis 8193, 0.0152 µg/mL (≈ 0.0447 µM). The compound further had an MIC against K. pneumoniae 10031 of 0.122 µg/mL (≈ 0.358 µM). Besides, the MTD in data set [2] was found to be 40 mg/kg. In addition, in data set [3] (1440 h, s.c., 60-day survivors), the ED100 stood at 20 mg/kg. In addition, the minimal effective dose in data set [3] (1440 h, s.c., 60-day survivors) was 5 mg/kg. For the same compound, the “Cure/Treat at Min. Curing Dose” value in data set [3] (s.c., 60-day survivors) is on record as 1/5. In data set [3] (s.c., dose 5 mg. per kg.), the “ΔMST (increase in mean survival time)” value came to 6.4.

For the origin of these results see patent US4118561A, “7-(Substituted)-7H-pyrrolo[3,2-f]quinazoline-1,3-diamines” (priority 1977, dated 1978).
